From patent US20120220562A1, “Anti-Viral Compounds” (ABBOTT LABAORATORIES, priority 2011, published 2012)

These compounds were tested on HCV 1b-Con1 replicon (assay: HCV 1b-Con1 replicon assay in the presence of 5% FBS). Conditions: Hepatitis C virus.
Assay type: cell-based

Row | SMILES | EC50 [pM]
1 | COC(=O)N[C@H](C(=O)N1CCC[C@H]1c1nc2cc([C@H]3CC[C@H](c4ccc5[nH]c([C@@H]6CCCN6C(=O)[C@@H](NC(=O)OC)C(C)C)nc5c4)N3c3cc(F)c(N4CCN(c5ccccc5)CC4)c(F)c3)ccc2[nH]1)C(C)C [Example 4.58, methyl {(2S)-1-[(2S)-2-{5-[(2R,5R)-1-[3,5-difluoro-4-(4-phenylpiperazin-1-yl)phenyl]-5-{2-[(2S)-1-{(2S)-2-[(methoxycarbonyl)amino]-3-methylbutanoyl}pyrrolidin-2-yl]-1H-benzimidazol-5-yl}pyrrolidin-2-yl]-1H-benzimidazol-2-yl}pyrrolidin-1-yl]-3-methyl-1-oxobutan-2-yl}carbamate] | < 100
2 | COC(=O)N[C@H](C(=O)N1CCC[C@H]1c1nc2cc([C@H]3CC[C@H](c4cc5nc([C@@H]6CCCN6C(=O)[C@@H](NC(=O)OC)C(C)C)[nH]c5cc4F)N3c3cc(F)c(N4CCC(c5ccc(F)cc5)CC4)c(F)c3)c(F)cc2[nH]1)C(C)C [Example 4.57, methyl {(2S)-1-[(2S)-2-{5-[(2R,5R)-1-{3,5-difluoro-4-[4-(4-fluorophenyl)piperidin-1-yl]phenyl}-5-{6-fluoro-2-[(2S)-1-{(2S)-2-[(methoxycarbonyl)amino]-3-methylbutanoyl}pyrrolidin-2-yl]-1H-benzimidazol-5-yl}pyrrolidin-2-yl]-6-fluoro-1H-benzimidazol-2-yl}pyrrolidin-1-yl]-3-methyl-1-oxobutan-2-yl}carbamate] | < 100
3 | COC(=O)N[C@H](C(=O)N1CCC[C@H]1c1nc2cc([C@H]3CC[C@H](c4cc5nc([C@@H]6CCCN6C(=O)[C@@H](NC(=O)OC)C(C)C)[nH]c5cc4F)N3c3cc(F)c(N4CCN(c5ccc(C(F)(F)F)cc5)CC4)c(F)c3)c(F)cc2[nH]1)C(C)C [Example 4.42, methyl {(2S)-1-[(2S)-2-{5-[(2R,5R)-1-(3,5-difluoro-4-{4-[4-(trifluoromethyl)phenyl]piperazin-1-yl}phenyl)-5-{6-fluoro-2-[(2S)-1-{(2S)-2-[(methoxycarbonyl)amino]-3-methylbutanoyl}pyrrolidin-2-yl]-1H-benzimidazol-5-yl}pyrrolidin-2-yl]-6-fluoro-1H-benzimidazol-2-yl}pyrrolidin-1-yl]-3-methyl-1-oxobutan-2-yl}carbamate] | < 100
4 | COC(=O)N[C@H](C(=O)N1CCC[C@H]1c1nc2cc([C@H]3CC[C@H](c4ccc5[nH]c([C@@H]6CCCN6C(=O)[C@@H](NC(=O)OC)C(C)C)nc5c4)N3c3cc(F)c(N4C[C@H]5CC[C@H]5C4)c(F)c3)ccc2[nH]1)C(C)C [Example 1.8, methyl {(2S)-1-[(2S)-2-{5-[(2R,5R)-1-{4-[(1R,5S)-3-azabicyclo[3.2.0]hept-3-yl]-3,5-difluorophenyl}-5-{2-[(2S)-1-{(2S)-2-[(methoxycarbonyl)amino]-3-methylbutanoyl}pyrrolidin-2-yl]-1H-benzimidazol-5-yl}pyrrolidin-2-yl]-1H-benzimidazol-2-yl}pyrrolidin-1-yl]-3-methyl-1-oxobutan-2-yl}carbamate] | < 100
5 | COC(=O)N[C@H](C(=O)N1CCC[C@H]1c1nc2cc([C@H]3CC[C@H](c4ccc5[nH]c([C@@H]6CCCN6C(=O)[C@@H](NC(=O)OC)C6Cc7ccccc7C6)nc5c4)N3c3cc(F)c(N4CCC(c5ccccc5)CC4)c(F)c3)ccc2[nH]1)C1Cc2ccccc2C1 [Example 3.27, dimethyl ({(2R,5R)-1-[3,5-difluoro-4-(4-phenylpiperidin-1-yl)phenyl]pyrrolidine-2,5-diyl}bis{1H-benzimidazole-5,2-diyl(2S)pyrrolidine-2,1-diyl[(1S)-1-(2,3-dihydro-1H-inden-2-yl)-2-oxoethane-2,1-diyl]})biscarbamate] | < 100
6 | COC(=O)N[C@H](C(=O)N1CCC[C@H]1c1nc2cc(F)c([C@H]3CC[C@H](c4cc5[nH]c([C@@H]6CCCN6C(=O)[C@@H](NC(=O)OC)C(C)C)nc5cc4F)N3c3cc(F)c(N4CC(C)CC(C)C4)c(F)c3)cc2[nH]1)C(C)C (stereo partly drawn) [Example 2.16, methyl {(2S)-1-[(2S)-2-{5-[(5R)-1-[4-(3,5-dimethylpiperidin-1-yl)-3,5-difluorophenyl]-5-{6-fluoro-2-[(2S)-1-{(2S)-2-[(methoxycarbonyl)amino]-3-methylbutanoyl}pyrrolidin-2-yl]-1H-benzimidazol-5-yl}pyrrolidin-2-yl]-6-fluoro-1H-benzimidazol-2-yl}pyrrolidin-1-yl]-3-methyl-1-oxobutan-2-yl}carbamate] | < 100
7 | COC(=O)N[C@H](C(=O)N1[C@H](c2nc3cc([C@H]4CC[C@H](c5ccc6[nH]c([C@@H]7C[C@@H]8CCC[C@@H]8N7C(=O)[C@@H](NC(=O)OC)C7CCCC7)nc6c5)N4c4cc(F)c(N5CCCCC5)c(F)c4)ccc3[nH]2)C[C@@H]2CCC[C@@H]21)C1CCCC1 [Example 3.30, dimethyl ({(2R,5R)-1-[3,5-difluoro-4-(piperidin-1-yl)phenyl]pyrrolidine-2,5-diyl}bis{1H-benzimidazole-5,2-diyl(2S,3aS,6aS)hexahydrocyclopenta[b]pyrrole-2,1(2H)-diyl[(1S)-1-cyclopentyl-2-oxoethane-2,1-diyl]})biscarbamate] | < 100
8 | COC(=O)N[C@H](C(=O)N1CCC[C@H]1c1nc2ccc([C@H]3CC[C@H](c4ccc5nc([C@@H]6CCCN6C(=O)[C@@H](NC(=O)OC)C(C)C)[nH]c5c4)N3c3ccc(OC4CCCC4)c(F)c3)cc2[nH]1)C(C)C [Example 4.1, methyl {(2S)-1-[(2S)-2-{6-[(2R,5R)-1-[4-(cyclopentyloxy)-3-fluorophenyl]-5-{2-[(2S)-1-{(2S)-2-[(methoxycarbonyl)amino]-3-methylbutanoyl}pyrrolidin-2-yl]-1H-benzimidazol-6-yl}pyrrolidin-2-yl]-1H-benzimidazol-2-yl}pyrrolidin-1-yl]-3-methyl-1-oxobutan-2-yl}carbamate] | < 100
9 | COC(=O)N[C@H](C(=O)N1CCC[C@H]1c1nc2cc([C@H]3CC[C@H](c4ccc5[nH]c([C@@H]6CCCN6C(=O)[C@@H](NC(=O)OC)C6CCOCC6)nc5c4)N3c3ccc(C(C)(C)C)cc3)ccc2[nH]1)C1CCOCC1 [Example 3.6, dimethyl ([(2R,5R)-1-(4-tert-butylphenyl)pyrrolidine-2,5-diyl]bis{1H-benzimidazole-5,2-diyl(2S)pyrrolidine-2,1-diyl[(1S)-2-oxo-1-(tetrahydro-2H-pyran-4-yl)ethane-2,1-diyl]})biscarbamate] | < 100
10 | COC(=O)N[C@H](C(=O)N1CCC[C@H]1c1nc2ccc([C@H]3CC[C@H](c4cc5[nH]c([C@@H]6CCCN6C(=O)[C@@H](NC(=O)OC)C(C)C)nc5cc4F)N3c3cc(F)c(N4CCCCC4)c(F)c3)cc2[nH]1)C(C)C [Example 4.43, methyl {(2S)-1-[(2S)-2-{6-[(2R,5R)-1-[3,5-difluoro-4-(piperidin-1-yl)phenyl]-5-{5-fluoro-2-[(2S)-1-{(2S)-2-[(methoxycarbonyl)amino]-3-methylbutanoyl}pyrrolidin-2-yl]-1H-benzimidazol-6-yl}pyrrolidin-2-yl]-1H-benzimidazol-2-yl}pyrrolidin-1-yl]-3-methyl-1-oxobutan-2-yl}carbamate] | < 100
11 | COC(=O)N[C@H](C(=O)N1CCC[C@H]1c1nc2c(Cl)c([C@H]3CC[C@@H](c4ccc5[nH]c([C@@H]6CCCN6C(=O)[C@@H](NC(=O)OC)C(C)C)nc5c4Cl)N3c3ccc(C(C)(C)C)cc3)ccc2[nH]1)C(C)C [Example 6.6, methyl {(2S)-1-[(2S)-2-{5-[(2R,5S)-1-(4-tert-butylphenyl)-5-{4-chloro-2-[(2S)-1-{(2S)-2-[(methoxycarbonyl)amino]-3-methylbutanoyl}pyrrolidin-2-yl]-1H-benzimidazol-5-yl}pyrrolidin-2-yl]-4-chloro-1H-benzimidazol-2-yl}pyrrolidin-1-yl]-3-methyl-1-oxobutan-2-yl}carbamate] | < 100
12 | COC(=O)N[C@H](C(=O)N1CCC[C@H]1c1nc2cc([C@H]3CC[C@H](c4cc5nc([C@@H]6CCCN6C(=O)[C@@H](NC(=O)OC)C6CCOCC6)[nH]c5cc4F)N3c3cc(F)c(N4CCN(c5c(F)cccc5F)CC4)c(F)c3)c(F)cc2[nH]1)C1CCOCC1 [Example 3.51, dimethyl ([(2R,5R)-1-{4-[4-(2,6-difluorophenyl)piperazin-1-yl]-3,5-difluorophenyl}pyrrolidine-2,5-diyl]bis{(6-fluoro-1H-benzimidazole-5,2-diyl)(2S)pyrrolidine-2,1-diyl[(1S)-2-oxo-1-(tetrahydro-2H-pyran-4-yl)ethane-2,1-diyl]})biscarbamate] | < 100
13 | COC(=O)N[C@H](C(=O)N1CCC[C@H]1c1nc2cc([C@@H]3CC[C@@H](c4ccc5[nH]c([C@@H]6CCCN6C(=O)[C@@H](NC(=O)OC)[C@@H](C)OC)nc5c4)N3c3ccc(C4CC4)cc3F)ccc2[nH]1)[C@@H](C)OC [Example 3.13, methyl {(2S,3R)-1-[(2S)-2-{5-[(2S,5S)-1-(4-cyclopropyl-2-fluorophenyl)-5-(2-{(2S)-1-[N-(methoxycarbonyl)-O-methyl-L-threonyl]pyrrolidin-2-yl}-1H-benzimidazol-5-yl)pyrrolidin-2-yl]-1H-benzimidazol-2-yl}pyrrolidin-1-yl]-3-methoxy-1-oxobutan-2-yl}carbamate] | < 100
14 | COC(=O)N[C@H](C(=O)N1CCC[C@H]1c1nc2cc([C@H]3CC[C@H](c4cc5nc([C@@H]6CCCN6C(=O)[C@@H](NC(=O)OC)C(C)C)[nH]c5cc4F)N3c3cc(F)c(N4CCC5(CC4)CC5)c(F)c3)c(F)cc2[nH]1)C(C)C [Example 6.12, methyl {(2S)-1-[(2S)-2-{5-[(2R,5R)-1-[4-(6-azaspiro[2.5]oct-6-yl)-3,5-difluorophenyl]-5-{6-fluoro-2-[(2S)-1-{(2S)-2-[(methoxycarbonyl)amino]-3-methylbutanoyl}pyrrolidin-2-yl]-1H-benzimidazol-5-yl}pyrrolidin-2-yl]-6-fluoro-1H-benzimidazol-2-yl}pyrrolidin-1-yl]-3-methyl-1-oxobutan-2-yl}carbamate] | < 100
